System: rodent lifetime carcinogenesis bioassay, tumor incidence TD50
Assay: carcinogenic potency in animals, long-term in vivo studies, CPDB compilation (AID 1745844)
Settings: by gavage

CC(C)=CCl
TD50 (mouse, strain B6C3F1, females, site: Harderian gland, lesion: papillary adenoma, dosed 102 weeks, study length 103 weeks): 146 mg/kg/day | TD50 (mouse, strain B6C3F1, females, site: any site (literature study), lesion: several types, types named in the paper, dosed 102 weeks, study length 103 weeks): 14.6 mg/kg/day | TD50 (mouse, strain B6C3F1, females, site: forestomach, lesion: adenosquamous carcinoma + carcinoma, NOS + squamous-cell carcinoma + squamous-cell papilloma, dosed 102 weeks, study length 103 weeks): 14.3 mg/kg/day | TD50 (mouse, strain B6C3F1, females, site: forestomach, lesion: adenosquamous carcinoma + carcinoma, NOS + squamous-cell carcinoma, dosed 102 weeks, study length 103 weeks): 14.3 mg/kg/day | TD50 (mouse, strain B6C3F1, females, site: forestomach, lesion: squamous-cell carcinoma + squamous-cell papilloma, dosed 102 weeks, study length 103 weeks): 14.4 mg/kg/day | TD50 (mouse, strain B6C3F1, females, site: forestomach, lesion: squamous-cell carcinoma, dosed 102 weeks, study length 103 weeks): 14.4 mg/kg/day | TD50 (mouse, strain B6C3F1, females, site: forestomach, lesion: squamous-cell papilloma, dosed 102 weeks, study length 103 weeks): 373 mg/kg/day | TD50 (mouse, strain B6C3F1, females, site: jejunum + liver + multiple organs + spleen, lesion: malignant lymphoma, lymphocytic type + malignant lymphoma, mixed type + malignant lymphoma, histiocytic type, dosed 102 weeks, study length 103 weeks): 124 mg/kg/day | TD50 (mouse, strain B6C3F1, females, site: liver + multiple organs + spleen, lesion: malignant lymphoma, mixed type, dosed 102 weeks, study length 103 weeks): 229 mg/kg/day | TD50 (mouse, strain B6C3F1, females, site: liver, lesion: hepatocellular adenoma + hepatocellular carcinoma + neoplastic nodule, dosed 102 weeks, study length 103 weeks): 150 mg/kg/day | TD50 (mouse, strain B6C3F1, females, site: liver, lesion: hepatocellular adenoma, dosed 102 weeks, study length 103 weeks): 150 mg/kg/day | TD50 (mouse, strain B6C3F1, females, site: lung, lesion: alveolar/bronchiolar adenoma + alveolar/bronchiolar carcinoma, dosed 102 weeks, study length 103 weeks): 186 mg/kg/day | TD50 (mouse, strain B6C3F1, females, site: lung, lesion: alveolar/bronchiolar adenoma, dosed 102 weeks, study length 103 weeks): 235 mg/kg/day | TD50 (mouse, strain B6C3F1, males, site: Harderian gland, lesion: papillary adenoma, dosed 102 weeks, study length 103 weeks): 149 mg/kg/day | TD50 (mouse, strain B6C3F1, males, site: any site (literature study), lesion: several types, types named in the paper, dosed 102 weeks, study length 103 weeks): 13.9 mg/kg/day | TD50 (mouse, strain B6C3F1, males, site: duodenum + lymph node + multiple organs + spleen, lesion: malignant lymphoma, mixed type + malignant lymphoma, NOS + granulocytic leukemia + malignant lymphoma, histiocytic type + malign, dosed 102 weeks, study length 103 weeks): 148 mg/kg/day | TD50 (mouse, strain B6C3F1, males, site: duodenum + lymph node + multiple organs + spleen, lesion: malignant lymphoma, mixed type + malignant lymphoma, NOS + malignant lymphoma, histiocytic type + malignant lymphoma, lymphocy, dosed 102 weeks, study length 103 weeks): 154 mg/kg/day | TD50 (mouse, strain B6C3F1, males, site: forestomach + preputial gland, lesion: squamous-cell carcinoma + squamous-cell papilloma, dosed 102 weeks, study length 103 weeks): 15.2 mg/kg/day | TD50 (mouse, strain B6C3F1, males, site: forestomach, lesion: squamous-cell carcinoma + squamous-cell papilloma, dosed 102 weeks, study length 103 weeks): 15.5 mg/kg/day | TD50 (mouse, strain B6C3F1, males, site: forestomach, lesion: squamous-cell carcinoma, dosed 102 weeks, study length 103 weeks): 17.2 mg/kg/day | TD50 (mouse, strain B6C3F1, males, site: forestomach, lesion: squamous-cell papilloma, dosed 102 weeks, study length 103 weeks): 195 mg/kg/day | TD50 (mouse, strain B6C3F1, males, site: liver + mesenteric lymph node + preputial gland + spleen, lesion: hemangioma + hemangiosarcoma, dosed 102 weeks, study length 103 weeks): 221 mg/kg/day | TD50 (mouse, strain B6C3F1, males, site: liver + spleen, lesion: hemangiosarcoma, dosed 102 weeks, study length 103 weeks): 375 mg/kg/day | TD50 (mouse, strain B6C3F1, males, site: liver, lesion: hepatocellular adenoma + hepatocellular carcinoma + neoplastic nodule, dosed 102 weeks, study length 103 weeks): 48.8 mg/kg/day | TD50 (mouse, strain B6C3F1, males, site: liver, lesion: hepatocellular adenoma + hepatocellular carcinoma, dosed 102 weeks, study length 103 weeks): 48.8 mg/kg/day | TD50 (mouse, strain B6C3F1, males, site: liver, lesion: hepatocellular adenoma, dosed 102 weeks, study length 103 weeks): 87.1 mg/kg/day | TD50 (mouse, strain B6C3F1, males, site: liver, lesion: hepatocellular carcinoma, dosed 102 weeks, study length 103 weeks): 104 mg/kg/day | TD50 (mouse, strain B6C3F1, males, site: lung, lesion: alveolar/bronchiolar adenoma + alveolar/bronchiolar carcinoma, dosed 102 weeks, study length 103 weeks): 87.7 mg/kg/day | TD50 (mouse, strain B6C3F1, males, site: lung, lesion: alveolar/bronchiolar adenoma, dosed 102 weeks, study length 103 weeks): 117 mg/kg/day | TD50 (mouse, strain B6C3F1, males, site: lung, lesion: alveolar/bronchiolar carcinoma, dosed 102 weeks, study length 103 weeks): 199 mg/kg/day | TD50 (mouse, strain B6C3F1, males, site: preputial gland, lesion: squamous-cell carcinoma, dosed 102 weeks, study length 103 weeks): 90.7 mg/kg/day | TD50 (rat, strain Fischer 344, females, site: any site (literature study), lesion: several types, types named in the paper, dosed 100 weeks, study length 104 weeks): 11.9 mg/kg/day | TD50 (rat, strain Fischer 344, females, site: esophagus + forestomach + gingiva + nasal cavity + oral mucosa + palate + tongue, lesion: squamous-cell carcinoma + squamous-cell papilloma + adenocarcinoma + adenoma, NOS + carcinoma, NOS, dosed 100 weeks, study length 104 weeks): 25.3 mg/kg/day | TD50 (rat, strain Fischer 344, females, site: esophagus, lesion: squamous-cell carcinoma, dosed 100 weeks, study length 104 weeks): 250 mg/kg/day | TD50 (rat, strain Fischer 344, females, site: forestomach, lesion: squamous-cell carcinoma + squamous-cell papilloma, dosed 100 weeks, study length 104 weeks): 95.2 mg/kg/day | TD50 (rat, strain Fischer 344, females, site: forestomach, lesion: squamous-cell carcinoma, dosed 100 weeks, study length 104 weeks): 191 mg/kg/day | TD50 (rat, strain Fischer 344, females, site: forestomach, lesion: squamous-cell papilloma, dosed 100 weeks, study length 104 weeks): 209 mg/kg/day | TD50 (rat, strain Fischer 344, females, site: gingiva + oral mucosa + palate + tongue, lesion: squamous-cell carcinoma + squamous-cell papilloma, dosed 100 weeks, study length 104 weeks): 318 mg/kg/day | TD50 (rat, strain Fischer 344, females, site: lung, lesion: alveolar/bronchiolar adenoma + alveolar/bronchiolar carcinoma, dosed 100 weeks, study length 104 weeks): 218 mg/kg/day | TD50 (rat, strain Fischer 344, females, site: mammary gland, lesion: adenocarcinoma + fibroadenoma, dosed 100 weeks, study length 104 weeks): 36.7 mg/kg/day | TD50 (rat, strain Fischer 344, females, site: mammary gland, lesion: fibroadenoma, dosed 100 weeks, study length 104 weeks): 38.3 mg/kg/day | TD50 (rat, strain Fischer 344, females, site: multiple organs, lesion: lymphocytic leukemia + mononuclear-cell leukemia, dosed 100 weeks, study length 104 weeks): 170 mg/kg/day | TD50 (rat, strain Fischer 344, females, site: multiple organs, lesion: mononuclear-cell leukemia, dosed 100 weeks, study length 104 weeks): 202 mg/kg/day | TD50 (rat, strain Fischer 344, females, site: nasal cavity, lesion: adenocarcinoma + adenoma, NOS + carcinoma, NOS + squamous-cell carcinoma, dosed 100 weeks, study length 104 weeks): 34.3 mg/kg/day | TD50 (rat, strain Fischer 344, females, site: nasal cavity, lesion: adenocarcinoma + adenoma, NOS, dosed 100 weeks, study length 104 weeks): 143 mg/kg/day | TD50 (rat, strain Fischer 344, females, site: nasal cavity, lesion: adenocarcinoma + carcinoma, NOS + squamous-cell carcinoma, dosed 100 weeks, study length 104 weeks): 35.2 mg/kg/day | TD50 (rat, strain Fischer 344, females, site: nasal cavity, lesion: adenocarcinoma, dosed 100 weeks, study length 104 weeks): 159 mg/kg/day | TD50 (rat, strain Fischer 344, females, site: nasal cavity, lesion: carcinoma, NOS + squamous-cell carcinoma, dosed 100 weeks, study length 104 weeks): 46.8 mg/kg/day | TD50 (rat, strain Fischer 344, females, site: nasal cavity, lesion: carcinoma, NOS, dosed 100 weeks, study length 104 weeks): 52.7 mg/kg/day | TD50 (rat, strain Fischer 344, females, site: oral mucosa + palate, lesion: squamous-cell papilloma, dosed 100 weeks, study length 104 weeks): 1010 mg/kg/day | TD50 (rat, strain Fischer 344, females, site: oral mucosa, lesion: squamous-cell papilloma, dosed 100 weeks, study length 104 weeks): 1220 mg/kg/day | TD50 (rat, strain Fischer 344, females, site: pituitary gland, anterior, lesion: adenoma, NOS + chromophobe adenoma + chromophobe carcinoma, dosed 100 weeks, study length 104 weeks): 68 mg/kg/day | TD50 (rat, strain Fischer 344, females, site: pituitary gland, anterior, lesion: adenoma, NOS + chromophobe adenoma, dosed 100 weeks, study length 104 weeks): 101 mg/kg/day | TD50 (rat, strain Fischer 344, females, site: pituitary gland, anterior, lesion: chromophobe adenoma + chromophobe carcinoma, dosed 100 weeks, study length 104 weeks): 71.7 mg/kg/day | TD50 (rat, strain Fischer 344, females, site: pituitary gland, anterior, lesion: chromophobe adenoma, dosed 100 weeks, study length 104 weeks): 109 mg/kg/day | TD50 (rat, strain Fischer 344, females, site: pituitary gland, anterior, lesion: chromophobe carcinoma, dosed 100 weeks, study length 104 weeks): 222 mg/kg/day | TD50 (rat, strain Fischer 344, females, site: thyroid gland, lesion: c-cell adenoma, dosed 100 weeks, study length 104 weeks): 225 mg/kg/day | TD50 (rat, strain Fischer 344, females, site: thyroid gland, lesion: follicular-cell adenoma + follicular-cell carcinoma, dosed 100 weeks, study length 104 weeks): 131 mg/kg/day | TD50 (rat, strain Fischer 344, females, site: thyroid gland, lesion: follicular-cell carcinoma, dosed 100 weeks, study length 104 weeks): 136 mg/kg/day | TD50 (rat, strain Fischer 344, females, site: uterus, lesion: endometrial stromal polyp + endometrial stromal sarcoma, dosed 100 weeks, study length 104 weeks): 84.9 mg/kg/day | TD50 (rat, strain Fischer 344, females, site: uterus, lesion: endometrial stromal polyp, dosed 100 weeks, study length 104 weeks): 91.9 mg/kg/day | TD50 (rat, strain Fischer 344, males, site: adrenal gland + adrenal medulla, lesion: pheochromocytoma, malignant + pheochromocytoma, dosed 94 weeks, study length 104 weeks): 86.7 mg/kg/day | TD50 (rat, strain Fischer 344, males, site: any site (literature study), lesion: several types, types named in the paper, dosed 94 weeks, study length 104 weeks): 10.2 mg/kg/day | TD50 (rat, strain Fischer 344, males, site: esophagus + forestomach + lip + nasal cavity + palate + tongue, lesion: squamous-cell carcinoma + squamous-cell papilloma + adenocarcinoma + carcinoma, NOS, dosed 94 weeks, study length 104 weeks): 17.5 mg/kg/day | TD50 (rat, strain Fischer 344, males, site: esophagus, lesion: squamous-cell carcinoma + squamous-cell papilloma, dosed 94 weeks, study length 104 weeks): 81.6 mg/kg/day | TD50 (rat, strain Fischer 344, males, site: esophagus, lesion: squamous-cell carcinoma, dosed 94 weeks, study length 104 weeks): 143 mg/kg/day | TD50 (rat, strain Fischer 344, males, site: esophagus, lesion: squamous-cell papilloma, dosed 94 weeks, study length 104 weeks): 218 mg/kg/day | TD50 (rat, strain Fischer 344, males, site: forestomach, lesion: squamous-cell carcinoma + squamous-cell papilloma, dosed 94 weeks, study length 104 weeks): 41.6 mg/kg/day | TD50 (rat, strain Fischer 344, males, site: forestomach, lesion: squamous-cell carcinoma, dosed 94 weeks, study length 104 weeks): 135 mg/kg/day | TD50 (rat, strain Fischer 344, males, site: forestomach, lesion: squamous-cell papilloma, dosed 94 weeks, study length 104 weeks): 67.1 mg/kg/day | TD50 (rat, strain Fischer 344, males, site: lip + palate + tongue, lesion: squamous-cell carcinoma + squamous-cell papilloma, dosed 94 weeks, study length 104 weeks): 163 mg/kg/day | TD50 (rat, strain Fischer 344, males, site: lip + palate + tongue, lesion: squamous-cell carcinoma, dosed 94 weeks, study length 104 weeks): 178 mg/kg/day | TD50 (rat, strain Fischer 344, males, site: liver, lesion: hepatocellular adenoma + hepatocellular carcinoma + neoplastic nodule, dosed 94 weeks, study length 104 weeks): 1030 mg/kg/day | TD50 (rat, strain Fischer 344, males, site: multiple organs, lesion: mononuclear-cell leukemia, dosed 94 weeks, study length 104 weeks): 128 mg/kg/day | TD50 (rat, strain Fischer 344, males, site: nasal cavity, lesion: adenocarcinoma + carcinoma, NOS + squamous-cell carcinoma, dosed 94 weeks, study length 104 weeks): 29.7 mg/kg/day | TD50 (rat, strain Fischer 344, males, site: nasal cavity, lesion: adenocarcinoma, NOS, dosed 94 weeks, study length 104 weeks): 70.1 mg/kg/day | TD50 (rat, strain Fischer 344, males, site: nasal cavity, lesion: carcinoma, NOS + squamous-cell carcinoma, dosed 94 weeks, study length 104 weeks): 52.1 mg/kg/day | TD50 (rat, strain Fischer 344, males, site: nasal cavity, lesion: carcinoma, NOS, dosed 94 weeks, study length 104 weeks): 63.4 mg/kg/day | TD50 (rat, strain Fischer 344, males, site: nasal cavity, lesion: squamous-cell carcinoma, dosed 94 weeks, study length 104 weeks): 297 mg/kg/day | TD50 (rat, strain Fischer 344, males, site: testis, lesion: interstitial-cell tumor, dosed 94 weeks, study length 104 weeks): 13.9 mg/kg/day | TD50 (rat, strain Fischer 344, males, site: tongue, lesion: squamous-cell carcinoma + squamous-cell papilloma, dosed 94 weeks, study length 104 weeks): 415 mg/kg/day | TD50 (rat, strain Fischer 344, males, site: tongue, lesion: squamous-cell carcinoma, dosed 94 weeks, study length 104 weeks): 469 mg/kg/day

— PubChem BioAssay AID1745844 (Carcinogenic Potency Database (CPDB), 2022)
